These results are taken from patent US9187472B2 (AbbVie Inc., priority 2012, dated 2015).

Assay [1] concerns the target NAMPT (human, recombinant, C-terminally His-tagged) (Homo sapiens, UniProt P43490). The experiment in a line: Time-Resolved Fluorescence Resonance Energy Transfer (TR-FRET) Binding Assay of NAMPT. The settings on record: without substrates; 6.8 nM NAMPT, 200 nM probe, 3 hours equilibration. In short, it runs like this: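 Compounds, diluted in half-log steps, are mixed with enzyme (6.8 nM), fluorescent probe (200 nM) and Tb-anti-His antibody (1 nM) in pH 7.5 HEPES buffer containing 10 mM MgCl2 and 1 mM DTT. Plates equilibrate 3 h at room temperature; normalized FRET ratios are fitted by four-parameter logistic regression for IC50.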

In another assay the target is NAMPT (Homo sapiens, UniProt P43490). Description: TR-FRET Binding Assay of NAMPT with PRPP. The conditions noted are these: with 200 μM PRPP and 2.5 mM ATP; 2 nM NAMPT, 2 nM probe, 16 hours equilibration. Put shortly:
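Compounds were mixed with 2 nM His-tagged NAMPT, 2 nM probe, 1 nM terbium anti-His antibody, 200 μM PRPP and 2.5 mM ATP in assay buffer with 2% DMSO, then left 16 hours to permit possible enzymatic processing of compounds before time-resolved FRET was measured.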

Another assay deals with PC3 cells. Description: NAMPT Cell Proliferation Assay. The conditions noted are these: Homo sapiens, PC-3, 120 h, 5 days incubation, cell viability by Cell Titer Glo. In kind it is cell-based. Put shortly: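 Following overnight attachment in RPMI with 10% heat-inactivated FBS, PC3 cells at 500 per well receive compounds spanning 10 μM down to 1×10^−5 μM. Growth is assessed by luminescent viability read after 5 days.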
A general note: ATP-based viability assays read luminescence as a measure of living cells.

Usually IC50 stands for the midpoint of a concentration-inhibition curve.

NAMPT, sequence (P43490 whole entry): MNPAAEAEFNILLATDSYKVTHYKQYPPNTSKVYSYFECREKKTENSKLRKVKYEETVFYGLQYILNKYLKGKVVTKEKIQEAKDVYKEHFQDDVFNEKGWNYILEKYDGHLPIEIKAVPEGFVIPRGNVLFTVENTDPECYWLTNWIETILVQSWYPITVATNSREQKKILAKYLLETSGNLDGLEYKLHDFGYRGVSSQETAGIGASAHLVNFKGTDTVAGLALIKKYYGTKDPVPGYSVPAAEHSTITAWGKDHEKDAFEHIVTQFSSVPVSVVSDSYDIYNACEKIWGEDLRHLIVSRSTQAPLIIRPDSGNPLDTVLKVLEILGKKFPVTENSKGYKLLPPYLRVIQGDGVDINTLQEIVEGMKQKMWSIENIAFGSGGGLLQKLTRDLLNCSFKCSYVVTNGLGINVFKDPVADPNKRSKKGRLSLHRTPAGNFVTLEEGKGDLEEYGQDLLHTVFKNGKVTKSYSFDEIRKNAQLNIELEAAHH
NAMPT (human, recombinant, C-terminally His-tagged), sequence (P43490 whole entry): as above

As to `O=C(NCc1ccn2ccnc2c1)c1ccc(OC2CCN(C(=O)C3COCCO3)CC2)cc1` (stereo not drawn) [Example 421, 4-{[1-(1,4-dioxan-2-ylcarbonyl)piperidin-4-yl]oxy}-N-(imidazo[1,2-a]pyridin-7-ylmethyl)benzamide], the results for the IC50 (in assay [1]; on NAMPT; with PC3 cells) were 2450 nM, 0.271 nM and 317 nM, respectively.

`O=C(NCc1ccn2ccnc2c1)Nc1ccc(O[C@@H]2CCN(C(=O)C3CCOC3)C2)cc1` (stereo partly drawn) [Example 337, 1-(imidazo[1,2-a]pyridin-7-ylmethyl)-3-(4-{[(3R)-1-(tetrahydrofuran-3-ylcarbonyl)pyrrolidin-3-yl]oxy}phenyl)urea]: the figures for the IC50 (in assay [1]; at NAMPT; with PC3 cells) were 497 nM, 0.205 nM and 533 nM, respectively.

Regarding `CC(C)CC(=O)N1CCC(c2ccc(C(=O)NCc3ccn4ccnc4c3)cc2)C1` (stereo not drawn) [Example 601, N-(imidazo[1,2-a]pyridin-7-ylmethyl)-4-[1-(3-methylbutanoyl)pyrrolidin-3-yl]benzamide], the concentration for half-maximal inhibition (IC50) in assay [1] is 712 nM; on NAMPT it was 0.682 nM; in the assay with PC3 cells it was 56.7 nM.

Regarding `O=C(NCc1ccc2nccn2c1)c1ccc(-c2cnn(CC3CCCOC3)c2)s1` (stereo not drawn) [Example 206, N-(imidazo[1,2-a]pyridin-6-ylmethyl)-5-[1-(tetrahydro-2H-pyran-3-ylmethyl)-1H-pyrazol-4-yl]thiophene-2-carboxamide], the results for the 50% inhibitory concentration (IC50) (in assay [1]; on NAMPT; with PC3 cells) were 25.7 nM, 0.263 nM and 1.31 nM, respectively.

As for `O=C(NCc1ccn2ccnc2c1)Nc1ccc(O[C@@H]2CCN(C(=O)c3ccccc3)C2)cc1` [Example 329, 1-(4-{[(3R)-1-benzoylpyrrolidin-3-yl]oxy}phenyl)-3-(imidazo[1,2-a]pyridin-7-ylmethyl)urea], the concentration for half-maximal inhibition (IC50) in assay [1] is 30.8 nM; at NAMPT it was 0.169 nM; in the assay with PC3 cells it was 12.4 nM.

For the compound `O=C(NCc1ccn2ccnc2c1)c1ccc(C2CCN(C(=O)Cc3ccc(F)cc3)C2)s1` (stereo not drawn) [Example 758, 5-{1-[(4-fluorophenyl)acetyl]pyrrolidin-3-yl}-N-(imidazo[1,2-a]pyridin-7-ylmethyl)thiophene-2-carboxamide], the half-inhibitory concentration (IC50) came out at 132 nM in assay [1], 0.61 nM on NAMPT and 23.2 nM in the assay on PC3 cells.

As for `O=C(NCc1ccn2ccnc2c1)c1ccc(C2CCN(C(=O)c3ccccc3Cl)C2)cc1` (stereo not drawn) [Example 594, 4-[1-(2-chlorobenzoyl)pyrrolidin-3-yl]-N-(imidazo[1,2-a]pyridin-7-ylmethyl)benzamide], the IC50 was 22.7 nM in assay [1], 0.682 nM on NAMPT and 1.11 nM in the assay on PC3 cells.

For the compound `O=C(NCc1ccn2ccnc2c1)c1ccc(C2CCN(C(=O)c3ccccn3)CC2)cc1` [Example 498, N-(imidazo[1,2-a]pyridin-7-ylmethyl)-4-[1-(pyridin-2-ylcarbonyl)piperidin-4-yl]benzamide], the results for the 50% inhibitory concentration (IC50) (in assay [1]; at NAMPT; in the assay on PC3 cells) were 309 nM, 0.169 nM and 17.9 nM, respectively.

As for `O=C(CC1CCOC1)Nc1ccc(NC(=O)Nc2ccc3nccn3c2)cc1` (stereo not drawn) [Example 26, N-{4-[(imidazo[1,2-a]pyridin-6-ylcarbamoyl)amino]phenyl}-2-(tetrahydrofuran-3-yl)acetamide], the IC50 stood at 211 nM in assay [1], 1.1 nM on NAMPT and 261 nM with PC3 cells.

For `CC(C)(O)C(=O)N1CC=C(c2ccc(NC(=O)Nc3ccc4nccn4c3)cc2)CC1` [Example 29, 1-{4-[1-(2-hydroxy-2-methylpropanoyl)-1,2,3,6-tetrahydropyridin-4-yl]phenyl}-3-imidazo[1,2-a]pyridin-6-ylurea], the IC50 came out at 168 nM in assay [1], 0.236 nM at NAMPT and 43.9 nM in the assay on PC3 cells.

For `O=C(NCc1ccn2ccnc2c1)c1cnc(C2CCN(c3ccccn3)CC2)s1` [Example 697, N-(imidazo[1,2-a]pyridin-7-ylmethyl)-2-[1-(pyridin-2-yl)piperidin-4-yl]-1,3-thiazole-5-carboxamide], the IC50 in assay [1] came out at 735 nM; on NAMPT, 0.802 nM; in the assay on PC3 cells, 633 nM.

Regarding `O=C(NCc1ccn2ccnc2c1)c1ccc(-c2cnn(CC3CCCO3)c2)o1` (stereo not drawn) [Example 476, N-(imidazo[1,2-a]pyridin-7-ylmethyl)-5-[1-(tetrahydrofuran-2-ylmethyl)-1H-pyrazol-4-yl]furan-2-carboxamide], the concentration for half-maximal inhibition (IC50) in assay [1] came out at 70.8 nM; at NAMPT it was 0.194 nM; in the assay on PC3 cells, 9.42 nM.

On to `CC(C)Cn1cc(-c2ccc(NC(=O)Nc3ccc4nccn4c3)cc2)cn1` [Example 51, 1-imidazo[1,2-a]pyridin-6-yl-3-{4-[1-(2-methylpropyl)-1H-pyrazol-4-yl]phenyl}urea], for which the values for the IC50 (in assay [1]; at NAMPT; in the assay with PC3 cells) were 264 nM, 0.524 nM and 83 nM, respectively.

With `O=C(Nc1ccc(C(=O)NCC2CCOCC2)cc1)Nc1ccc2nccn2c1` [Example 22], the half-inhibitory concentration (IC50) in assay [1] was found to be 399 nM; at NAMPT, 0.277 nM; in the assay with PC3 cells, 142 nM.

Take `CC(C)C(=O)N1CC(c2ccc(NC(=O)NCc3ccn4ccnc4c3)cc2)C1` [Example 452, 1-(imidazo[1,2-a]pyridin-7-ylmethyl)-3-{4-[1-(2-methylpropanoyl)azetidin-3-yl]phenyl}urea]: the concentration for half-maximal inhibition (IC50) in assay [1] is 293 nM; on NAMPT it was 0.285 nM; in the assay with PC3 cells it was 59.2 nM.

Consider `O=C(NCc1ccn2ccnc2c1)Nc1ccc(C2CCN(C(=O)c3ccc(F)c(F)c3)CC2)cc1` [Example 723, 1-{4-[1-(3,4-difluorobenzoyl)piperidin-4-yl]phenyl}-3-(imidazo[1,2-a]pyridin-7-ylmethyl)urea], for which the IC50 in assay [1] was 154 nM; at NAMPT, 0.932 nM; in the assay on PC3 cells, 71.6 nM.

In the case of `O=C(NCc1ccn2ccnc2c1)c1ccc(-c2cnn(CC3CCCO3)c2)s1` (stereo not drawn) [Example 248, N-(imidazo[1,2-a]pyridin-7-ylmethyl)-5-[1-(tetrahydrofuran-2-ylmethyl)-1H-pyrazol-4-yl]thiophene-2-carboxamide], the IC50 is 65.8 nM in assay [1], 0.169 nM at NAMPT and 2.42 nM in the assay with PC3 cells.

On to `Cn1cc(-c2ccc(C(=O)NCc3ccn4ccnc4c3)s2)cn1` [Example 345, N-(imidazo[1,2-a]pyridin-7-ylmethyl)-5-(1-methyl-1H-pyrazol-4-yl)thiophene-2-carboxamide], for which the IC50 was determined as 201 nM in assay [1], 0.27 nM at NAMPT and 281 nM in the assay with PC3 cells.

Take `CC[C@H](C)C(=O)N1CC=C(c2ccc(C(=O)NCc3ccn4ccnc4c3)o2)CC1` [Example 748, N-(imidazo[1,2-a]pyridin-7-ylmethyl)-5-{1-[(2S)-2-methylbutanoyl]-1,2,3,6-tetrahydropyridin-4-yl}furan-2-carboxamide]: the 50% inhibitory concentration (IC50) stood at 558 nM in assay [1], 0.648 nM at NAMPT and 50.7 nM in the assay with PC3 cells.

For the compound `O=C(NCCCCC1CCN(C(=O)C2CCCC2)CC1)Nc1ccc2nccn2c1` [Example 68, 1-{4-[1-(cyclopentylcarbonyl)piperidin-4-yl]butyl}-3-imidazo[1,2-a]pyridin-6-ylurea], the IC50 in assay [1] came to 386 nM; on NAMPT, 0.476 nM; in the assay with PC3 cells, 53.8 nM.

For the compound `CC(C)S(=O)(=O)N1CCC(c2ccc(C(=O)NCc3cn4ccnc4cn3)cc2)CC1` [Example 817, N-(imidazo[1,2-a]pyrazin-6-ylmethyl)-4-[1-(propan-2-ylsulfonyl)piperidin-4-yl]benzamide], the IC50 in assay [1] amounted to 65.8 nM; at NAMPT, 1.6 nM; in the assay on PC3 cells, 9.27 nM.

Regarding `O=C(NCc1ccc2ncnn2c1)c1ccc(-c2cnn(CC3(F)CCOCC3)c2)o1` [Example 810, 5-{1-[(4-fluorotetrahydro-2H-pyran-4-yl)methyl]-1H-pyrazol-4-yl}-N-([1,2,4]triazolo[1,5-a]pyridin-6-ylmethyl)furan-2-carboxamide], the IC50 turned out to be 481 nM in assay [1], 12.6 nM on NAMPT and 327 nM with PC3 cells.

With `Cc1noc(C)c1CC(=O)N(CC1CCCO1)c1ncc(C(=O)NCc2ccc3nccn3c2)s1` (stereo not drawn) [Example 128, 2-{[(3,5-dimethyl-1,2-oxazol-4-yl)acetyl](tetrahydrofuran-2-ylmethyl)amino}-N-(imidazo[1,2-a]pyridin-6-ylmethyl)-1,3-thiazole-5-carboxamide], the IC50 in assay [1] worked out at 30.7 nM; at NAMPT it was 0.873 nM; in the assay with PC3 cells it was 2.21 nM.

Turning to `O=C(NCc1ccn2ccnc2c1)c1ccc(OC2CCN(C(=O)c3ccccc3)CC2)cc1` [Example 415, 4-[(1-benzoylpiperidin-4-yl)oxy]-N-(imidazo[1,2-a]pyridin-7-ylmethyl)benzamide], the IC50 in assay [1] amounted to 1620 nM; on NAMPT, 0.246 nM; with PC3 cells, 234 nM.

For `O=C(CN1CCOCC1)Nc1ccc(NC(=O)Nc2ccc3nccn3c2)cc1` [Example 41], the values for the IC50 (in assay [1]; at NAMPT; in the assay with PC3 cells) were 294 nM, 1.15 nM and 138 nM, respectively.

For `COc1ccccc1C(=O)N1CC(c2ccc(C(=O)NCc3ccn4ccnc4c3)cc2)C1` [Example 636, N-(imidazo[1,2-a]pyridin-7-ylmethyl)-4-[1-(2-methoxybenzoyl)azetidin-3-yl]benzamide], the half-inhibitory concentration (IC50) in assay [1] amounted to 238 nM; on NAMPT, 0.915 nM; in the assay on PC3 cells, 18.4 nM.
